In patent publication US20100303934A1, “METHODS AND COMPOSITIONS FOR NERVE REGENERATION” (Oregon Health & Science University, priority 2004, published 2010):

Key:
[1] = test system: SH-SY5Y human neuroblastoma cells; experiment: Neurite elongation (neurite outgrowth length) assay in SH-SY5Y cells in the presence of NGF; assay type: cell-based; conditions: for Process elongation in micrographs (FIGS. 3-10): SH-SY5Y cells at 168 hours, with NGF; for Activity in the neurite elongation assay (FIG. 17): tested at 1 μm, in the presence of NGF
Protocol: SH-SY5Y human neuroblastoma cells were maintained in DMEM medium (GIBCO) supplemented with 10% fetal calf serum (SIGMA), 50 IU/mL penicillin, and […] streptomycin (GIBCO) at 37° C. in 7% CO2. Cells were plated in six-well plates at 1×10^6 cells/well and treated with […] aphidicolin (SIGMA). At five days, cells were washed, treated with nerve growth factor (NGF) (Boehringer Mannheim, Indianapolis, Ind.) at 10 ng/mL (to induce process outgrowth) in the presence or absence of the Centella asiatica extract and extract fractions (100 μg/mL). […] All experiments were run in duplicate wells and repeated at least twice for reproducibility.
Neurite lengths were measured on photographic prints using a SummaSketch III digitizing tablet connected with Bioquant Classic 95 software (R&M Biometrics, Nashville, Term.); only those processes greater than two times the cell body length were measured. […] Histograms were compared using a Mann-Whitney U test, which makes no assumptions about the shape of the distribution.

[2] = test system: SHSY5Y neuroblastoma cells; experiment: Protection against hydrogen peroxide induced toxicity (CellTiter Blue / LDH); assay type: cell-based, human; conditions: positive control, concentration not given; H2O2 125 to 500 μM
Protocol: SHSY5Y neuroblastoma cells were grown in DMEM/F12 medium (from Gibco) containing 10% fetal calf serum (FCS), 100 ug/ml streptomycin sulphate, 100 U/ml penicillin G in a humidified air/5% CO2 chamber at 37 C. The following method was followed: Day1. Plate SHSY5Y cells on 24-well plate at 100,000/well Day4. Remove old medium, add fresh medium with 10 ng/ml NGF. Day5. Add GK, GKW or EGCG (epigallocatechin gallate; a known antioxidant), overnight. Day6. Remove old medium (containing test substances), add fresh medium (2% FCS) with 10 ng/ml NGF. Treat cells with or without H2O2, for 2-3 hours. Remove medium and H2O2, wash 1× with fresh medium with NGF, add fresh medium (2% FCS) with NGF again, incubate overnight. Day7. Harvest supernatant for LDH assay. Add fresh medium and CellTiter Blue reagent (from Promega, containing resazurin) into each well, incubate for 2 hours, read fluorescence under the Fluorometer. @ 560 nm EX/590 nm EM, cut off 590 nm.

| Molecule | Process elongation in micrographs (FIGS. 3-10) [1] | Activity in the neurite elongation assay (FIG. 17) [1] | also measured |
| --- | --- | --- | --- |
| C[C@H]1[C@H](C)CC[C@]2(C(=O)O)CC[C@]3(C)C(=CC[C@@H]4[C@@]5(C)C[C@@H](O)[C@H](O)[C@@](C)(CO)[C@@H]5CC[C@]43C)[C@H]12 [asiatic acid] | markedly increased | active | Activity of AA in the presence of the MEK inhibitor PD 098059 ([1]; FIG. 10, 168 hours): prevented; Stimulation of neurite outgrowth elongation ([1]; concentration of 104 (0.5 μg/mL)): considerable stimulation |
| madecassoside |  | not active |  |
| C[C@H]1[C@H](C)CC[C@]2(C(=O)O)CC[C@]3(C)C(=CC[C@@H]4[C@@]5(C)C[C@@H](O)[C@H](O)[C@@](C)(CO)[C@@H]5[C@H](O)C[C@]43C)[C@H]12 [madecassic acid] |  | active |  |
| C=CC[C@@H]1/C=C(\C)C[C@H](C)C[C@H](OC)[C@H]2O[C@@](O)(C(=O)C(=O)N3CCCC[C@H]3C(=O)O[C@H](/C(C)=C/[C@@H]3CC[C@@H](O)[C@H](OC)C3)[C@H](C)[C@@H](O)CC1=O)[C@H](C)C[C@@H]2OC [FK506, reference compound] |  |  | Neurite elongation activity in the absence of NGF ([1]; absence of NGF): no activity |
| O=C(O[C@@H]1Cc2c(O)cc(O)cc2O[C@@H]1c1cc(O)c(O)c(O)c1)c1cc(O)c(O)c(O)c1 [EGCG, epigallocatechin gallate] |  |  | Protection against H2O2 toxicity [2]: protective |
| NGF: nerve growth factor (Boehringer Mannheim), 10 ng/mL, used to induce process outgrowth (protein, UniProt P01139 122-241, looked up, Beta-nerve growth factor, nerve growth factor (Boehringer Mannheim), 10 ng/mL, used to induce process outgrowth) Beta-nerve growth factor: SSTHPVFHMGEFSVCDSVSVWVGDKTTATDIKGKEVTVLAEVNINNSVFRQYFFETKCRASNPVESGCRGIDSKHWNSYCTTTHTFVKALTTDEKQAAWRFIRIDTACVCVLSRKATRRG | demonstrate process elongation |  | Mean neurite length (μm) at 168 h ([1]; test substance 100 μg/mL, in the presence of NGF (10 ng/mL), 168 h): 115 μm |
